# Results reported in patent US5180825A, “Mitomycin derivatives” (Kyowa Hakko Kogyo Co., Ltd., priority 1990, dated 1993).
# How the values were obtained:
# [1] = Acute Toxicity (single intravenous injection); conditions: mouse, in vivo, ddY mice, single i.v., 14 days observation, Behrens Kaerber's method
# Protocol: A test compound was intravenously injected once to five ddY mice as one group. […] LD50 was calculated from the death rate of each group according to the Behrens Kaerber's method.
# HeLa S3 cells = experiment: Growth Inhibition Test on HeLa S3 Cells; assay type: cell-based; conditions: Homo sapiens, 1 hour exposure, then 72 hours incubation, Neutral Red, 550 nm
# Protocol: Growth Inhibition Test on HeLa S3 Cells
# HeLa S3 cells were suspended in a MEM medium containing 10% fetal calf serum and 2 mM glutamine at a concentration of 3×10^4 cells/ml, and 0.1 ml of the cell suspension was put into each well of a 96-well microtiter plate.
# After culturing at 37° C. overnight in a carbon dioxide gas incubator, 0.05 ml of a test sample appropriately diluted with the medium was added to each well. The cells were further cultured for one hour in the carbon dioxide gas incubator and the culture supernatant was removed. The residue was washed once with a phosphate buffer saline [PBS(-)] and 0.1 ml of a fresh medium was added to each well, and the cells were further incubated at 37° C. for 72 hours in the carbon dioxide gas incubator. After removal of the supernatant, 0.1 ml of a culture medium containing 0.02% Neutral Red was added to each well, and the cells were further incubated at 37° C. for one hour in the carbon dioxide gas incubator to stain the cells. After removal of the culture supernatant, each well was washed once with a physiological saline, and the dye was extracted with 0.001 N HCl/30% methanol. Absorbance of the extract at 550 nm was measured with a microplate reader. The cell growth inhibition percentage was calculated according to the following formula from the absorbance of the extract of the cells treated with the test compound in various concentrations and that of intact cells. [formula]
# From the cell growth inhibition percentage thus obtained, the concentration of the test compound which inhibits cell growth by 50% (IC50) was determined.
# Sarcoma 180 Solid Tumor = experiment: Anti-tumor Activity to Sarcoma 180 Solid Tumor; assay type: in vivo; conditions: Mus musculus, Sarcoma-180, iv, 168 h; dose of showing T/C=0.5 (tumor volume), male ddY mice, single i.v. 24 hours after s.c. implantation, measured at 7 days
# Protocol: Anti-tumor Activity to Sarcoma 180 Solid Tumor
# 5×10^6 Sarcoma 180 cells were abdominally implanted into a ddY mouse and the cells were collected from the ascites of the mouse 7 days after the implantation. The cells were washed once with a sterilized physiological saline solution and then suspended in a sterilized physiological saline solution to prepare a cell suspension of 5×10^7 cells/ml. 0.1 ml of the cell suspension was subcutaneously implated into the right axillary space of each of male ddY mice weighing 20±2 g.
# A test compound was dissolved in a physiological saline solution or a polyoxyethylene sorbitan monolaurate-containing physiological saline solution, and 0.1 to 0.2 ml of the solution was intravenously injected to five mice as one group 24 hours after the implatation of the tumor cells.
# The anti-tumor activity of the test compound was determined by measuring the major diameter (a) and the minor diameter (b) of the tumor 7 days after the implantation of tumor cells, and the value of (a×b^2/ 2), which corresponds to the volume of the tumor, was calculated. The intended anti-tumor activity is represented by a ratio of T/C, in which C indicates the tumor volume of mice of the control group to which a physiological saline solution instead of the test compound was administered and T indicates the tumor volume of mice of the test group to which the test compound was administered. T/C at each dose given was plotted in a graph in which T/C is shown by an ordinary scale on the vertical axis and a dose is shown by a logarithmic scale on the horizontal axis. The relation between the dose and T/C was determined to be a straight line by the least-squares method. From the regression formula of the straight line thus obtained, the dose of showing T/C=0.5 is calculated to give ED50.
smiles,measurement,setting,value
"CO[C@@]12[C@H](COC(N)=O)C3=C(C(=O)C(CSc4nc5ccccc5s4)=C(N)C3=O)N1C[C@@H]1N[C@@H]12 [Compound 13, 6-Demethyl-6-[(2-benzothiazolylthio)methyl]mitomyc-in C]",LD50 at 336 h,[1],> 50 mg/kg
same,IC50,HeLa S3 cells,700 nM
same,ED50,Sarcoma 180 Solid Tumor,36 mg/kg
"CO[C@@]12[C@H](COC(N)=O)C3=C(C(=O)C(CSc4ccccn4)=C(N)C3=O)N1C[C@@H]1N[C@@H]12 [Compound 1, 6-Demethyl-6-[(2-pyridylthio)methyl]mitomycin C]",IC50,HeLa S3 cells,1800 nM
"CO[C@@]12[C@H](COC(N)=O)C3=C(C(=O)C(CSc4nc(C)cc(C)n4)=C(N)C3=O)N1C[C@@H]1N[C@@H]12 [Compound 4, 6-Demethyl-6-[[(4,6-dimethylpyrimidin-2-yl)thio]methyl]mitomycin C]",IC50,HeLa S3 cells,1100 nM
"CO[C@@]12[C@H](COC(N)=O)C3=C(C(=O)C(CSc4nccs4)=C(N)C3=O)N1C[C@@H]1N[C@@H]12 [Compound 12, 6-Demethyl-6-[(2-thiazolylthio)methyl]mitomycin C]",IC50,HeLa S3 cells,1400 nM
"CO[C@@]12[C@H](COC(N)=O)C3=C(C(=O)C(CSC4=NCCS4)=C(N)C3=O)N1C[C@@H]1N[C@@H]12 [Compound 11, 6-Demethyl-6-[(2-thiazolinylthio)methyl]mitomycin C]",LD50 at 336 h,[1],9.4 mg/kg
same,IC50,HeLa S3 cells,820 nM
same,ED50,Sarcoma 180 Solid Tumor,5.9 mg/kg
"CO[C@@]12[C@H](COC(N)=O)C3=C(C(=O)C(CSc4ncccn4)=C(N)C3=O)N1C[C@@H]1N[C@@H]12 [Compound 3, 6-Demethyl-6-[(2-pyrimidinylthio)methyl]mitomycin C]",LD50 at 336 h,[1],26 mg/kg
same,IC50,HeLa S3 cells,950 nM
same,ED50,Sarcoma 180 Solid Tumor,8.9 mg/kg
"CO[C@@]12[C@H](COC(N)=O)C3=C(C(=O)C(CS[C@@H]4O[C@H](COC(C)=O)[C@@H](OC(C)=O)[C@H](OC(C)=O)[C@H]4OC(C)=O)=C(N)C3=O)N1C[C@@H]1N[C@@H]12 [Compound 16, 6-Demethyl-6-[[(2,3,4,6-tetra-O-acetyl-β-D-glucopyranosyl)thio]methyl]mitomycin C]",LD50 at 336 h,[1],38 mg/kg
same,IC50,HeLa S3 cells,1100 nM
same,ED50,Sarcoma 180 Solid Tumor,24 mg/kg
"CO[C@@]12[C@H](COC(N)=O)C3=C(C(=O)C(CSc4ncccc4O)=C(N)C3=O)N1C[C@@H]1N[C@@H]12 [Compound 2, 6-Demethyl-6-[[(3-hydroxypyridin-2-yl)thio]methyl]mitomycin C]",LD50 at 336 h,[1],15 mg/kg
same,IC50,HeLa S3 cells,190 nM
same,ED50,Sarcoma 180 Solid Tumor,3.7 mg/kg
